Test results reported in PubChem BioAssay (NCI).
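Each compound was tested at five concentrations against cells in 96-well plates for 48 hours. At the TGI there is no net growth.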

Experiments:
Assay in all cases: NCI tumour cell line growth inhibition, 48 h
HOP-62 NSCLC = system: HOP-62 NSCLC
SF-295 CNS = system: SF-295 CNS
HT29 colon = system: HT29 colon
EKVX NSCLC = system: EKVX NSCLC
NCI-H226 lung = system: NCI-H226 lung
MDA-MB-435 = system: MDA-MB-435
UACC-62 melanoma = system: UACC-62 melanoma
OVCAR-8 ovarian = system: OVCAR-8 ovarian
NCI-H522 lung = system: NCI-H522 lung
SK-OV-3 ovarian = system: SK-OV-3 ovarian
HCT-15 colon = system: HCT-15 colon
PC-3 prostate = system: PC-3 prostate
A498 renal = system: A498 renal
RXF 393 renal = system: RXF 393 renal
M14 melanoma = system: M14 melanoma
U251 CNS = system: U251 CNS
NCI-H460 lung = system: NCI-H460 lung
NCI-H23 lung = system: NCI-H23 lung
UO-31 renal = system: UO-31 renal
K-562 leukemia = system: K-562 leukemia
SNB-75 CNS = system: SNB-75 CNS
ACHN renal = system: ACHN renal
MALME-3M melanoma = system: MALME-3M melanoma
HL-60(TB) leukemia = system: HL-60(TB) leukemia
SK-MEL-28 melanoma = system: SK-MEL-28 melanoma
BT-549 breast = system: BT-549 breast
HS 578T breast = system: HS 578T breast
OVCAR-3 ovarian = system: OVCAR-3 ovarian
MOLT-4 leukemia = system: MOLT-4 leukemia
HCT-116 colon = system: HCT-116 colon
MCF7 breast = system: MCF7 breast
MDA-MB-231 breast = system: MDA-MB-231 breast
SF-539 CNS = system: SF-539 CNS
SW-620 colon = system: SW-620 colon
DU-145 prostate = system: DU-145 prostate
RPMI-8226 leukemia = system: RPMI-8226 leukemia
CCRF-CEM leukemia = system: CCRF-CEM leukemia
HOP-92 NSCLC = system: HOP-92 NSCLC
SF-268 CNS = system: SF-268 CNS
LOX IMVI melanoma = system: LOX IMVI melanoma
OVCAR-5 ovarian = system: OVCAR-5 ovarian
SNB-19 CNS = system: SNB-19 CNS
SN12C renal = system: SN12C renal
A549 NSCLC = system: A549 NSCLC
SK-MEL-5 melanoma = system: SK-MEL-5 melanoma
NCI/ADR-RES ovarian = system: NCI/ADR-RES ovarian
COLO 205 colon = system: COLO 205 colon
HCC-2998 colon = system: HCC-2998 colon
CAKI-1 renal = system: CAKI-1 renal
UACC-257 melanoma = system: UACC-257 melanoma
MDA-N = system: MDA-N
T-47D breast = system: T-47D breast
OVCAR-4 ovarian = system: OVCAR-4 ovarian
TK-10 renal = system: TK-10 renal
IGROV1 ovarian = system: IGROV1 ovarian
786-0 renal = system: 786-0 renal
KM12 colon = system: KM12 colon

## COC(C)(C)C(O)C(O)C[C@H](C)C1CC=C2C1(C)CCC1[C@@]3(C)CCC(OC(C)=O)C(C)(C)C3CC(OC3OC(COC(C)=O)C(O)C(O)C3O)[C@@]21C (some centres not stated)
HOP-62 NSCLC
  TGI: > 10 µM
SF-295 CNS
  TGI: > 10 µM
HT29 colon
  TGI: 9.01 µM
EKVX NSCLC
  TGI: > 10 µM
NCI-H226 lung
  TGI: > 10 µM
MDA-MB-435
  TGI: > 10 µM
UACC-62 melanoma
  TGI: > 10 µM
OVCAR-8 ovarian
  TGI: > 10 µM
NCI-H522 lung
  TGI: 8.7 µM
SK-OV-3 ovarian
  TGI: > 10 µM
HCT-15 colon
  TGI: > 10 µM
PC-3 prostate
  TGI: > 10 µM
A498 renal
  TGI: 8.68 µM
RXF 393 renal
  TGI: > 10 µM
M14 melanoma
  TGI: > 10 µM
U251 CNS
  TGI: > 10 µM
NCI-H460 lung
  TGI: > 10 µM
NCI-H23 lung
  TGI: > 10 µM
UO-31 renal
  TGI: 2.07 µM
K-562 leukemia
  TGI: > 10 µM
SNB-75 CNS
  TGI: > 10 µM
ACHN renal
  TGI: > 10 µM
MALME-3M melanoma
  TGI: > 10 µM
HL-60(TB) leukemia
  TGI: 5.54 µM
SK-MEL-28 melanoma
  TGI: > 10 µM
BT-549 breast
  TGI: > 10 µM
HS 578T breast
  TGI: > 10 µM
OVCAR-3 ovarian
  TGI: 9.79 µM
MOLT-4 leukemia
  TGI: 4.13 µM
HCT-116 colon
  TGI: > 10 µM
MCF7 breast
  TGI: > 10 µM
MDA-MB-231 breast
  TGI: 9.73 µM
SF-539 CNS
  TGI: > 10 µM
SW-620 colon
  TGI: > 10 µM
DU-145 prostate
  TGI: > 10 µM
RPMI-8226 leukemia
  TGI: 5.14 µM
CCRF-CEM leukemia
  TGI: 7.96 µM
HOP-92 NSCLC
  TGI: > 10 µM
SF-268 CNS
  TGI: > 10 µM
LOX IMVI melanoma
  TGI: 6.55 µM
OVCAR-5 ovarian
  TGI: > 10 µM
SNB-19 CNS
  TGI: > 10 µM
SN12C renal
  TGI: > 10 µM
A549 NSCLC
  TGI: > 10 µM
SK-MEL-5 melanoma
  TGI: 4.38 µM
NCI/ADR-RES ovarian
  TGI: > 10 µM
COLO 205 colon
  TGI: 3.89 µM
HCC-2998 colon
  TGI: 6.15 µM
CAKI-1 renal
  TGI: > 10 µM
UACC-257 melanoma
  TGI: > 10 µM
MDA-N
  TGI: > 10 µM
T-47D breast
  TGI: 8.73 µM
OVCAR-4 ovarian
  TGI: > 10 µM
TK-10 renal
  TGI: > 10 µM
IGROV1 ovarian
  TGI: 8.04 µM
786-0 renal
  TGI: > 10 µM
KM12 colon
  TGI: > 10 µM
